Literature values as cited in patent US7402578B2, “Methods for inhibiting cognitive deterioration in adults with down's syndrome” (Corcept Therapeutics, Inc., priority 2001, dated 2008).

Key:
[1] = test system: cognitive function in DS children; settings: Lobaugh et al. 2001
[2] = in one study (Kawai)

NC(=O)CN1CCCC1=O [Piracetam]
enhancement of cognitive function [1]: failed to enhance cognitive function

CC#C[C@]1(O)CC[C@H]2[C@@H]3CCC4=CC(=O)CCC4=C3[C@@H](c3ccc(N(C)C)cc3)C[C@@]21C [Mifepristone, 17-beta-hydroxy-11-beta-(4-dimethylaminophenyl)-17-alpha-(1-propynyl)-estra-4,9-dien-3-one]
fraction of the daily dose excreted in the urine [2]: less than 0.5%
